We go through three compounds from patent publication US20060134095A1, “Antioxidative composition and composition for external use” (priority 2003, published 2006).

A short description of series [1]: superoxide scavenging activity by ESR spin trapping (hypoxanthine/xanthine oxidase, DMPO).
Method: (2) In addition, according to the direction in the following Table 3, each of the samples was put into a 1.5 ml Eppendorf tube, XOD was added, and reaction was carried out for 30 seconds. Subsequently, the measurement was carried out by ESR, whereby the superoxide scavenging activities measured by ESR spin trapping were evaluated. The measuring method was according to the case of the hydroxyl radical.
The measurement conditions of ESR were as follows. Power: 4 mW, Field: 336±5, Sweep Time: 1 min., Modulation Width: 0.1 mT, Amp: 790, Response Time: 0.3 sec. Evaluation was performed with the ratio of the signal amplitude of O2 to that of the paramagnetic internal standard, MnO.
A short description of series [2]: hydroxy radical scavenging activity by ESR spin trapping (H2O2/FeSO4, DMPO). The conditions noted are these: for Remaining amount of hydroxyl radicals: relative signal intensity (DMPO-OH/MnO); for hydroxyl radical scavenging activity (in words) / hydroxyl radical scavenging activity compared with pro-vitamin C (A2P: ascorbic acid-2-phosphate Na): ESR spin trapping, Table 2.
Method: (1) With regard to the foregoing samples, according to the direction in the following Table 1, the sample was put into a 1.5 ml Eppendorf tube, H2O2 was added, and reaction was carried out for 30 seconds after the addition for H2O2. Subsequently, the measurement was carried out by ESR, and the hydroxy radical scavenging activities of the fullerenes measured by the ESR spin trapping method were evaluated.
For preparation of the reagents, milli Q was used. As for the ESR apparatus, JES-FR30 (JEOL Co.) was used, and measurement was carried out using a high sensitive ESR water-soluble flat cell (LABOTEC Co.). The measurement conditions of ESR were as follows. Power: 4 mW, Field: 336±5, Sweep Time: 1 min., Modulation Width: 0.32 mT, Amp: 400, Response Time: 0.3 sec. Evaluation was performed with the ratio of the signal amplitude of OH to that of the paramagnetic internal standard, MnO.

For series [3], the system named is human skin epidermal keratinocytes. The series is described as follows: antioxidative effect against UVB in keratinocytes (CDCFH-DA fluorescence, intracellular peroxide/hydrogen peroxide). In kind it is cell-based. The conditions noted are these: UVB 40 mJ/cm^2, samples added before irradiation, FIG. 1. The protocol:
(3) With regard to various samples, their antioxidative effects against UVB were evaluated by using keratinocytes, a human major cell type.
The results are shown in Pig. 1.

Turning to `CCO` [Ethanol, reference compound], the “Remaining amount of superoxide anion radical” value in series [1] (relative signal intensity (DMPO-OOH/MnO), ethanol, concentration not given, control (Milli-Q water) 3.0) came out at 7.5. Besides, the “Remaining amount of hydroxyl radicals” value in series [2] (ethanol, concentration not given, control (Milli-Q water) 3.0) is 1.3.

As to Fullerene modified with PEG [Sample F3], in series [1] (ESR spin trapping, Table 4), the “radical scavenging activity in the superoxide test (in words; printed as hydroxyl radical scavenging activities)” value is “significant” and the “superoxide anion radical scavenging activity compared with pro-vitamin C (A2P)” value is “significantly superior”. In series [2], the “hydroxyl radical scavenging activity (in words)” value was “significant” and the “hydroxyl radical scavenging activity compared with pro-vitamin C (A2P: ascorbic acid-2-phosphate Na)” value is given as “slightly superior to or equal to”.

For Hydroxylated fullerene [Sample F6], the “superoxide anion radical scavenging activity compared with pro-vitamin C (A2P)” value in series [1] (ESR spin trapping, Table 4) is on record as “equal to or more than”. Also, in series [2], the “hydroxyl radical scavenging activity (in words)” value is “significant” and the “hydroxyl radical scavenging activity compared with pro-vitamin C (A2P: ascorbic acid-2-phosphate Na)” value was “slightly superior to or equal to”. The “Remaining amount of hydroxyl radicals” value in series [2] (sample 9.26 μM, solubilized in 70% ethanol, diluted to 0.2%, control 3.0) is given as 0.6. Also, the “peroxide/hydrogen peroxide scavenging activity in skin cells (antioxidative effect) compared with pro-vitamin C (Asc2P-Na)” value in series [3] is given as “equal”.
